Results: patent US20080269241A1, “BICYCLIC AMINOPROPYL TETRAHYDRO-PYRAZOLO-PYRIDINE MODULATORS OF CATHEPSIN S” (priority 2007, published 2008)

These molecules were tested against T1, human cathepsin S (CatS) (Homo sapiens, UniProt P25774) (assay: Recombinant human cathepsin S (CatS) fluorogenic substrate inhibition assay). Settings: not given.
T1 construct: made in house; host or cells: baculovirus system (insect cells)
Assay type: biochemical
Experimental: Recombinant human cathepsin S (CatS) was expressed in the baculovirus system and purified in one step with a thiopropyl-sepharose column. […] The assay is run in 150 mM sodium acetate pH 5.0 containing 1.5 mM DTT and 150 mM NaCl. […] Measurements are taken every min for 20 min. The rate is calculated from the slope of the increase in fluorescence and the percent inhibition is calculated from this.

T1 sequence (P25774 115-331): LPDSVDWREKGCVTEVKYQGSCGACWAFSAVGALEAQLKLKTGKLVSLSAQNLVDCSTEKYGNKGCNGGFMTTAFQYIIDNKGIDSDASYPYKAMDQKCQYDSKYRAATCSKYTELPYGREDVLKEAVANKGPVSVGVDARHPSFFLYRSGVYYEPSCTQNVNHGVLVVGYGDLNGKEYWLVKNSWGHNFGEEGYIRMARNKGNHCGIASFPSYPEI

| IC50 | Structure (SMILES) |
| --- | --- |
| 10 nM | CC(C)CC(=O)NCc1cc(-c2nn(CC(O)CN3CCC(c4ccccc4)CC3)c3c2CN(S(C)(=O)=O)CC3)ccc1C(F)(F)F (stereo not drawn) [Example 288, N-(5-{1-[2-Hydroxy-3-(4-phenyl-piperidin-1-yl)-propyl]-5-methanesulfonyl-4,5,6,7-tetrahydro-1H-pyrazolo[4,3-c]pyridin-3-yl}-2-trifluoromethyl-benzyl)-3-methyl-butyramide] |

Same assay, conditions: recombinant human CatS, 10 μM Z-Valine-Valine-Arginine-AMC, pH 5.0; average of results obtained; read-out: CatS IC50

| IC50 | Structure (SMILES) |
| --- | --- |
| 60 nM | CC(C)CC(=O)NCc1cc(-c2nn(CC(O)CN3CCC(C(=O)N4CCCC4)CC3)c3c2CN(S(C)(=O)=O)CC3)ccc1C(F)(F)F (stereo not drawn) [Example 284, N-[5-(1-{2-Hydroxy-3-[4-(pyrrolidine-1-carbonyl)-piperidin-1-yl]-propyl}-5-methanesulfonyl-4,5,6,7-tetrahydro-1H-pyrazolo[4,3-c]pyridin-3-yl)-2-trifluoromethyl-benzyl]-3-methyl-butyramide] |
| 390 nM | Cc1noc(C2CCCN(CC(O)Cn3nc(-c4ccc(C(F)(F)F)c(CNC(=O)CC(C)C)c4)c4c3CCN(S(C)(=O)=O)C4)C2)n1 (stereo not drawn) [Example 285, N-[5-(1-{2-Hydroxy-3-[3-(3-methyl-[1,2,4]oxadiazol-5-yl)-piperidin-1-yl]-propyl}-5-methanesulfonyl-4,5,6,7-tetrahydro-1H-pyrazolo[4,3-c]pyridin-3-yl)-2-trifluoromethyl-benzyl]-3-methyl-butyramide] |
| 30 nM | Cc1noc(C2CCN(CC(O)Cn3nc(-c4ccc(C(F)(F)F)c(CNC(=O)CC(C)C)c4)c4c3CCN(S(C)(=O)=O)C4)CC2)n1 (stereo not drawn) [Example 286, N-[5-(1-{2-Hydroxy-3-[4-(3-methyl-[1,2,4]oxadiazol-5-yl)-piperidin-1-yl]-propyl}-5-methanesulfonyl-4,5,6,7-tetrahydro-1H-pyrazolo[4,3-c]pyridin-3-yl)-2-trifluoromethyl-benzyl]-3-methyl-butyramide] |
| 20 nM | CS(=O)(=O)N1CCc2c(c(-c3ccc(C(F)(F)F)c(CNCc4ccc(F)cc4)c3)nn2CCCN2CCC(C3CCCCC3)CC2)C1 [Example 296, (5-{1-[3-(4-Cyclohexyl-piperidin-1-yl)-propyl]-5-methanesulfonyl-4,5,6,7-tetrahydro-1H-pyrazolo[4,3-c]pyridin-3-yl}-2-trifluoromethyl-benzyl)-(4-fluoro-benzyl)-amine] |

| Structure (SMILES) | IC50 |
| --- | --- |
| CC(C)CC(=O)NCc1cc(-c2nn(CC(O)CN3CCC(O)(c4ccc(Br)cc4)CC3)c3c2CN(S(C)(=O)=O)CC3)ccc1C(F)(F)F (stereo not drawn) [Example 287, N-[5-(1-{3-[4-(4-Bromo-phenyl)-4-hydroxy-piperidin-1-yl]-2-hydroxy-propyl}-5-methanesulfonyl-4,5,6,7-tetrahydro-1H-pyrazolo[4,3-c]pyridin-3-yl)-2-trifluoromethyl-benzyl]-3-methyl-butyramide] | 60 nM |
